Tested on: gamma-secretase
Assay: gamma-secretase activity in a solubilized membrane preparation (cell-free assay per McLendon et al.)
Format: biochemical
Conditions: read-out: IC50 activity for inhibiting gamma-secretase activity
Experimental: The activity of compounds of the invention in inhibiting gamma-secretase activity was determined in a solubilized membrane preparation generally according to the description provided in McLendon et al. Cell-free assays for γ-secretase activity, The FASEB Journal (Vol. 14, December 2000, pp. 2383-2386).

IC50 | Structure (SMILES)
~5 µM | CCCC(NC(=O)CC(C)CCC=C(C)C)C(=O)Nc1cc(-c2ccccc2)n[nH]1 (centres unmarked) [Example 138, 3,7-Dimethyl-oct-6-enoic acid [1-(5-phenyl-2H-pyrazol-3-ylcarbamoyl)-butyl]-amide]
~1 µM | O=C(Cc1cc(F)cc(F)c1)NC(C(=O)Nc1cc(-c2ccccc2)n[nH]1)c1ccccc1 (centres unmarked) [Example 84, 2-[2-(3,5-difluoro-phenyl)-acetylamino]-2-phenyl-N-(5-phenyl-2H-pyrazol-3-yl)-acetamide]
